{"source": "paper PMC9620260", "about": "(Journal of Medicinal Chemistry, 2022)", "origin": "cited, not measured here", "key": {"[1]": {"target": "T. cruzi trans-sialidase (TcTS)"}, "[2]": {"tested_on": "V. cholerae sialidase"}, "[3]": {"tested_on": "SpNanA"}, "[4]": {"tested_on": "C. perfringens sialidase (CpNanI)"}, "[5]": {"tested_on": "bacterial sialidase"}, "[6]": {"tested_on": "sialidases"}, "[7]": {"tested_on": "S. pneumoniae sialidases"}, "[8]": {"tested_on": "influenza viral NA"}, "[9]": {"tested_on": "sialyltransferases"}, "[10]": {"tested_on": "T. cruzi"}, "[11]": {"test": "not given", "remark": "listed apart in the source"}, "[12]": {"tested_on": "Neu1", "details": "selective for Neu1 over the other isoenzymes"}}, "note": "Where two headings read alike, the source gives them in different places.", "data": [{"smiles": "O=C(O)c1cc(O)c2c(c1)C(=O)c1cc(O)c(Cl)c(O)c1C2=O", "note": "[6-chloro-9,10-dihydro-4,5,7-trihydroxy-9,10-dioxo-2-anthracenecarboxylic acid]", "values": [{"measurement": "IC50", "setting": "[1]; specific TcTS inhibitor", "value": 0.58, "unit": "µM"}]}, {"smiles": "COc1ccc(C=CC(=O)C=C(O)C=Cc2ccc(O)c(O)c2)cc1O", "note": "[7-(3,4-dihydroxyphenyl)-5-hydroxy-1-(3-hydroxy-4-methoxyphenyl) hepta-1,4,6-trien-3-one]", "values": [{"measurement": "inhibition of V. cholerae sialidase", "setting": "[2]", "value": "inhibit"}, {"measurement": "inhibition of S. pneumoniae NanA", "setting": "[3]", "value": "inhibit"}, {"measurement": "inhibition of C. perfringens sialidase", "setting": "[4]", "value": "inhibit"}]}, {"smiles": "CC(=O)NC1C(O)C(F)C(F)(C(=O)O)OC1C(O)C(O)CN=[N+]=[N-]", "note": "(stereo not shown) [9-azido-modified 2,3-diF-Neu5Ac]", "values": [{"measurement": "inhibitory activity against bacterial sialidases", "setting": "[5]; effect of modification of 2,3-difluoro-Sia", "value": "increased inhibitory activity"}]}, {"smiles": "CC(=O)N[C@H]1[C@H]([C@H](O)[C@H](O)CO)OC(O)(C(=O)O)C[C@@H]1O", "note": "(stereo partly shown) [Neu5Ac, N-acetylneuraminic acid]", "values": [{"measurement": "inhibition of sialidases", "setting": "[6]", "value": "weak inhibitor"}]}, {"smiles": "COc1cc2oc(-c3ccc(O)cc3O)c(CC=C(C)C)c(=O)c2c(O)c1/C=C/C(C)C", "note": "[artocarpin]", "values": [{"measurement": "inhibitory activity against S. pneumoniae sialidases", "setting": "[7]", "value": "inhibitory activity"}, {"measurement": "inhibitory activity against influenza sialidase", "setting": "[8]", "value": "inhibitory activity"}]}, {"smiles": "COC(=O)C1(OC(C)=O)OC([C@H](OC(C)=O)[C@@H](COC(C)=O)OC(C)=O)C(NC(C)=O)C(OC(C)=O)C1F", "note": "(stereo partly shown) [P-3Fax-Neu5Ac]", "values": [{"measurement": "nephrotoxicity", "value": "well-known nephrotoxicity"}, {"measurement": "inhibition of the sialyltransferases", "setting": "[9]", "value": "cell-permeable specific inhibitor"}]}, {"smiles": "CC(=O)N[C@H]1[C@H]([C@H](O)[C@H](O)CO)O[C@@](Oc2ccc([N+](=O)[O-])cc2C(F)F)(C(=O)O)C[C@@H]1O", "note": "[2-difluoromethyl-4-nitrophenyl glycoside of αNeu5Ac]", "values": [{"measurement": "IC50", "setting": "[1]; irreversible inhibitor of trans-sialidase", "value": 600, "unit": "µM"}, {"measurement": "T. cruzi infection of mammalian cells", "setting": "[10]", "value": "prevents T. cruzi infection of mammalian cells"}]}, {"smiles": "CCOC(=O)C1=C[C@@H](OC(CC)CC)[C@H](NC(C)=O)[C@@H](N)C1", "note": "[oseltamivir]", "values": [{"measurement": "side effects", "setting": "[11]", "value": "neuropsychiatric side effects"}]}, {"smiles": "CCCCC(=O)NC[C@@H](O)[C@@H](O)[C@@H]1OC(C(=O)O)=C[C@H](O)[C@H]1NC(C)=O", "note": "[C-9 Pentylamido derivative of DANA]", "values": [{"measurement": "IC50 against Neu1", "setting": "[12]", "value": "micromolar"}]}, {"smiles": "O=C(CCc1ccccc1)C[C@@H]1C[C@@H](c2ccccc2)c2c(cc(/C=C/c3ccccc3)oc2=O)O1", "note": "[katsumadain A]", "values": [{"measurement": "inhibitory activity against S. pneumoniae sialidases", "setting": "[7]", "value": "inhibitory activity"}, {"measurement": "inhibitory activity against influenza sialidase", "setting": "[8]", "value": "inhibitory activity"}]}, {"smiles": "COc1cc(C)c(C(=O)Oc2cc(C)c(C(=O)O)c(O)c2)c(O)c1", "note": "[Evernic acid]", "values": [{"measurement": "inhibition against bacterial sialidase", "setting": "[5]", "value": "dose-dependent inhibition"}]}, {"smiles": "CC(=O)N[C@H]1[C@H]([C@H](O)[C@H](O)CO)OC(C(=O)O)=C[C@@H]1O", "note": "[DANA, 2-deoxy-2,3-dehydro-N-acetylneuraminic acid]", "values": [{"measurement": "Ki values", "setting": "[8]; influenza viral neuraminidases", "value": "micromolar range"}, {"measurement": "IC50 against TcTS", "setting": "[1]", "value": "several hundred"}]}]}
